Results reported in US20250221953A1 (The University of Chicago, priority 2022, published 2025).
Structures can show the parent of a compound that is named as a salt. Where two headings read alike, the source gives them in different places.

System: Jurkat T cells
Assay type: cell-based, human
Details: IL-2 production level in treated group compared to control group, 48 hours treatment, then anti-CD3/anti-CD28 12 hours
Excerpt: Two preliminary screens were designed and performed.
To construct “blood chemical compound library for cell-based screening purposes, components such as antibodies that are difficult to distinguish due to a wide variety, and some supplements that only function at a whole organism level including fish oils and herbs were excluded. Physiological ranges of serum levels of individual blood chemicals are available in the human metabolome database (https://hmdb.ca/) and applied in the experimental design. For first screen 1a, Jurkat T cells were treated with blood chemical library for 48 hours and then activated with 2.5 μg/mL anti-CD3 and 0.5 μg/mL anti-CD28 antibodies for another 12 hours, followed by measurement of IL-2 level in medium supernatant using ELISA kit (Biolegend). For first screen 1b, 1×10^5 PD-1^+ Jurkat T cells were co-cultured with 2×10^4 H596 (PD-L1^+) cells in a well of 96-well plate for 60 hours, and then activated with 2.5 μg/mL anti-CD3 and 0.5 μg/mL anti-CD28 antibodies for another 12 hours, followed by measurement of IL-2 level in medium supernatant using ELISA kit. Please also refer to Resources Table and Table 1-2 for more details.

Compound | Relative changed percentage (%) | also measured
VASOACTIVE INTESTINAL PEPTIDE | 1.0212 | –
Collagen type II | 8.555 | –
O[C@H]1[C@H](O)[C@@H](O)[C@H](O)[C@@H](O)[C@H]1O [Inositol] | 15.38 | –
Nc1cc[nH]c(=O)n1 [CYTOSINE] | 74.6228 | –
N[C@@H](CS)C(=O)O [L-CYSTEINE BIOULTRA,, L-CYSTEINE] | −22.74 | –
O=C(O)CCC(=O)O [SUCCINIC ACID] | 4.14 | –
N[C@@H](CC(=O)O)C(=O)O [L-Aspartic Acid] | −9.615 | –
COc1c(O)c(C)c(C/C=C(\C)CC/C=C(\C)CC/C=C(\C)CC/C=C(\C)CC/C=C(\C)CC/C=C(\C)CC/C=C(\C)CC/C=C(\C)CC/C=C(\C)CCC=C(C)C)c(O)c1OC [Ubiquinol] | 2.165 | –
[Cl-].[Cl-].[Sr+2] [strontium chloride] | 30.89 | –
O=C([O-])[C@@H](O)[C@@H](O)[C@H](O)[C@@H](O)C(=O)[O-].[Ca+2] [Calcium d-glucarate] | −12.14 | –
O=C([O-])/C=C/C(=O)[O-].[Fe+2] [Ferrous Fumarate] | 6.278 | –
C[N+](C)(C)CC(=O)[O-] [Trimethylglycine] | 9.459 | –
CCCCC/C=C\C/C=C\C/C=C\CCCCC(=O)O [Gamma linolenic acid] | 9.058 | –
O=S(=O)([O-])[O-].[Cu+2] [COPPER(II) SULFATE, ANHYDROUS,/copper, COPPER(II) SULFATE, ANHYDROUS] | 51.65 | –
CC[C@H](C)[C@H](N)C(=O)O [L-Isoleucine] | −8.642 | –
O=C1O[C@H]([C@@H](O)CO)C(O)=C1O [L-ASCORBIC ACID] | 14.49 | –
CC[C@H](C)[C@@H]1NC(=O)[C@H](Cc2ccc(O)cc2)NC(=O)[C@@H](N)CSSC[C@@H](C(=O)N2CCC[C@H]2C(=O)N[C@@H](CC(C)C)C(=O)NCC(N)=O)NC(=O)[C@H](CC(N)=O)NC(=O)[C@H](CCC(N)=O)NC1=O [OXYTOCIN] | −6.991 | –
NC(=O)CC[C@H](N)C(=O)O [L-Glutamine] | 25.52 | –
C[C@]12CCC(=O)C=C1CC[C@@H]1[C@@H]2C(=O)C[C@@]2(C)[C@H]1CC[C@]2(O)C(=O)CO [CORTISONE] | −12.29 | –
O=C(O)CC(O)C(=O)O (racemic) [DL-MALIC ACID] | 40.01 | –
ARG8-VASOPRESSIN ACETATE SALT | −7.61 | –
CC/C=C\C/C=C\C/C=C\CCCCCCCC(=O)O [Alpha-linolenic acid] | −24.53 | –
O=C(CO)[C@@H](O)[C@H](O)[C@H](O)CO [D(−)FRUCTOSE] | −25.52 | –

Compound | Relative changed percentage (%) | also measured
CCCCCCCC/C=C\CCCCCCCCCCCC(=O)O [Erucic acid] | 10.71 | –
C[C@@H](O)[C@H](N)C(=O)O [L-Threonine] | −6.543 | –
IZING HORMONE RELEASING HORMONE HUMAN AC | −19.59 | –
NCC(=O)O [Glycine] | −8.966 | –
Cc1cc(O)cc2c1O[C@](C)(CCC[C@H](C)CCC[C@H](C)CCCC(C)C)CC2 [(+)-DELTA-TOCOPHEROL] | 41.42 | –
CHONDROITIN SULFATE, A SODIUM SALT | 9.195 | –
GLYCOGEN | 13.75 | –
SULFUR/sulfide | 24.14 | –
[Br-].[K+] [POTASSIUM BROMIDE] | 78.36 | –
CELLULOSE FIBROUS | −13.2 | –
Cc1c(O)cc2c(c1C)O[C@](C)(CCC[C@H](C)CCC[C@H](C)CCCC(C)C)CC2 [(+)-GAMMA-TOCOPHEROL] | 1.56 | –
N[C@@H](CSSC[C@H](N)C(=O)O)C(=O)O [L-Cystine] | −19.73 | –
[Br-].[Na+] [SODIUM BROMIDE] | −26.98 | –
Magnesium citrate | 3.782 | –
CCCCC/C=C\C/C=C\CCCCCCCC(=O)O [linoleic acid] | −9.42 | –
D-(+)-MALTOSE MONOHYDRATE | −4.914 | –
C=C1CC[C@H](O)C/C1=C/C=C1\CCC[C@]2(C)[C@@H]([C@H](C)/C=C/[C@H](C)C(C)C)CC[C@@H]12 [ERGOCALCIFEROL] | 16.01 | –
O=c1c(O)c(-c2ccc(O)c(O)c2)oc2cc(O)cc(O)c12 [Quercetin] | −4.501 | –
COc1nc(N)nc2nc[nH]c12 [O-METHYLGUANINE] | 6.274 | –
D-Pantothenic Acid, hemicalcium salt | – | Relative changed percentage (%) (hemicalcium salt): 31.9171%; Relative changed percentage (%) (listed as D-PANTOTHENIC ACID HEMICALCIUM, hemicalcium salt): −18.99%
Sphingomyelin | 95.24 | –
Zinc Picolinate | 5.492 | –
CSCC[C@H](N)C(=O)O [L-Methionine] | −11.84 | –

Compound | Relative changed percentage (%) | also measured
ADENINE DI[…] SALT HYDRAT | −0.3704 | –
CC1=C(/C=C/C(C)=C/C=C/C(C)=C/C=C/C=C(C)/C=C/C=C(C)/C=C/C2=C(C)CCCC2(C)C)C(C)(C)CCC1 [all trans B carotene] | 35.08 | –
CC(C)CCC[C@@H](C)[C@H]1CC[C@H]2[C@@H]3CC=C4C[C@@H](O)CC[C@]4(C)[C@H]3CC[C@]12C [CHOLESTEROL] | −31.89 | –
OCC(O)CO [GLYCEROL MOLECULAR BIOLOGY REAGENT, GLYCEROL] | 39.3621 | –
O=C(/C=C/c1ccc(O)c(O)c1)OCCc1ccccc1 [Caffeic acid phenethyl ester] | 43.85 | –
CCCCC[C@H](O)CC(=O)CCc1ccc(O)c(OC)c1 [Compound 6-gingerol, 6-gingerol] | 42.62 | –
CN(CC(=O)O)C(=N)N [Creatine] | −40.99 | –
N[C@@H](CCC(=O)O)C(=O)O [L-Glutamic Acid] | 2.2718 | –
O=c1[nH]c(=O)c2[nH]c(=O)[nH]c2[nH]1 [URIC ACID] | −6.651 | –
C[N+](C)(C)[C@@H](Cc1c[nH]c(=S)[nH]1)C(=O)[O-] [L-(+)-ERGOTHIONEINE INNER SALT] | −10.39 | –
O=C(O)CCCCC1CCSS1 (stereo not drawn) [alpha-lipoic acid] | 54.62 | –
Hyaluronic acid sodium salt | – | Relative changed percentage (%) (listed as HYALURONIC ACID SODIUM SALT, sodium salt): −9.738%; Relative changed percentage (%) (sodium salt): 3.093%
N=C(N)NCCC[C@H](N)C(=O)O [L-Arginine] | 10.75 | –
N[C@H]1C(O)O[C@H](CO)[C@@H](O)[C@@H]1OS(=O)(=O)O (stereo partly drawn) [D-glucosamine 3-sulfate] | 9.801 | –
CC1=CC(=O)C(C(C)C)=CC1=O [Thymoquinone] | 4.558 | –
LECYSTOKININ FRAGMENT 26-33 AMIDE NON SULFA | 4.556 | –
O=S(=O)([O-])[O-].[Mn+2] [Manganese sulfate] | 29.55 | –
C[C@]12CC[C@@H]3c4ccc(O)cc4CC[C@H]3[C@@H]1CCC2=O [ESTRONE] | 25.0199 | –
CC1=CCCC(C)(C)C1/C=C/C(C)=C/C=C/C(C)=C/C=C/C=C(C)/C=C/C=C(C)/C=C/C1=C(C)CCCC1(C)C (centres unmarked) [A-CAROTENE] | 6.561 | –
Cn1cnc2c1c(=O)[nH]c(=O)n2C [THEOBROMINE] | 25.42 | –
Nc1ncnc2c1ncn2[C@@H]1O[C@H](CO)[C@@H](O)[C@H]1O [ADENOSINE FREE BASE] | 3.704 | –
[Cl-].[Cl-].[Zn+2] [ZINC CHLORIDE] | 13.34 | –
O=S(=O)([O-])[O-].[Na+].[Na+] [SODIUM SULFATE] | 38.99 | –
